Data as given in the supplement of paper PMC10307832.

Assays:
Assay in all cases: relative viability (nuclei count vs DMSO), 5 days (fraction); higher = more cells survive
201T = tested on: 201T
Summary of the method: (§1)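 Nuclei were stained with Hoechst during a one-step fixation (final 0.05% Triton X-100, 1% formaldehyde, 1 ug/ml Hoechst) carried out 5 days after dosing, then counted on 4× images. The cells, lung cancer lines in 1536-well plates, had been dosed by pin tool the day after seeding with one drug alone or a fixed anchor-drug dose plus five library-drug doses (not always all listed) in √10 steps. Relative viability is the nuclei count in treated wells divided by that in vehicle wells, and each value is the median of duplicate plates.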

COR-L23 = tested on: COR-L23
Summary of the method: as §1

LCLC-97TM1 = tested on: LCLC-97TM1
Summary of the method: as §1

PC-14 = tested on: PC-14
Summary of the method: as §1

NCI-H650 = tested on: NCI-H650
Summary of the method: as §1

NCI-H1355 = tested on: NCI-H1355
Summary of the method: as §1

NCI-H2126 = tested on: NCI-H2126
Summary of the method: as §1

NCI-H2009 = tested on: NCI-H2009
Summary of the method: as §1

HCC-78 = tested on: HCC-78
Summary of the method: as §1

NCI-H1734 = tested on: NCI-H1734
Summary of the method: as §1

LCLC-103H = tested on: LCLC-103H
Summary of the method: as §1

NCI-H460 = tested on: NCI-H460
Summary of the method: as §1

HARA = tested on: HARA
Summary of the method: as §1

NCI-H647 = tested on: NCI-H647
Summary of the method: as §1

NCI-H1792 = tested on: NCI-H1792
Summary of the method: as §1

HCC-15 = tested on: HCC-15
Summary of the method: as §1

NCI-H596 = tested on: NCI-H596
Summary of the method: as §1

NCI-H441 = tested on: NCI-H441
Summary of the method: as §1

LOU-NH91 = tested on: LOU-NH91
Summary of the method: as §1

HCC-366 = tested on: HCC-366
Summary of the method: as §1

ChaGo-K-1 = tested on: ChaGo-K-1
Summary of the method: as §1

SMILES: COCC1(CO)C(=O)C2CCN1CC2 (configuration not stated) [PRIMA-1MET] + CC(C)C[C@H](NC(=O)[C@H](Cc1ccccc1)NC(=O)c1cnccn1)B(O)O [Bortezomib] (partner 0.002 µM)
- relative viability (201T; first compound 0.2 µM): 1.18
- relative viability (201T; first compound 0.6325 µM): 1.07
- relative viability (201T; first compound 2 µM): 1.07
- relative viability (201T; first compound 6.325 µM): 1.15
- relative viability (201T; first compound 20 µM): 1.08
- relative viability (COR-L23; first compound 0.2 µM): 1.29
- relative viability (COR-L23; first compound 0.6325 µM): 0.97
- relative viability (COR-L23; first compound 2 µM): 0.954
- relative viability (COR-L23; first compound 6.325 µM): 1.05
- relative viability (COR-L23; first compound 20 µM): 0.0202
- relative viability (LCLC-97TM1; first compound 0.2 µM): 0.526
- relative viability (LCLC-97TM1; first compound 0.6325 µM): 0.428
- relative viability (LCLC-97TM1; first compound 2 µM): 0.533
- relative viability (LCLC-97TM1; first compound 6.325 µM): 0.47
- relative viability (LCLC-97TM1; first compound 20 µM): 0.0592
- relative viability (PC-14; first compound 0.2 µM): 0.98
- relative viability (PC-14; first compound 0.6325 µM): 0.722
- relative viability (PC-14; first compound 2 µM): 0.856
- relative viability (PC-14; first compound 6.325 µM): 1.08
- relative viability (PC-14; first compound 20 µM): 0.884
- relative viability (NCI-H650; first compound 0.2 µM): 1.11
- relative viability (NCI-H650; first compound 2 µM): 0.816
- relative viability (NCI-H650; first compound 6.325 µM): 0.508
- relative viability (NCI-H650; first compound 20 µM): 0.117
- relative viability (NCI-H1355; first compound 0.2 µM): 1.26
- relative viability (NCI-H1355; first compound 0.6325 µM): 1.12
- relative viability (NCI-H1355; first compound 2 µM): 1.21
- relative viability (NCI-H1355; first compound 6.325 µM): 1.31
- relative viability (NCI-H1355; first compound 20 µM): 1.18
- relative viability (NCI-H2126; first compound 0.2 µM): 1.21
- relative viability (NCI-H2126; first compound 0.6325 µM): 1.13
- relative viability (NCI-H2126; first compound 2 µM): 1.06
- relative viability (NCI-H2126; first compound 6.325 µM): 1.16
- relative viability (NCI-H2126; first compound 20 µM): 1.1
- relative viability (NCI-H2009; first compound 0.2 µM): 0.714
- relative viability (NCI-H2009; first compound 0.6325 µM): 0.885
- relative viability (NCI-H2009; first compound 2 µM): 0.779
- relative viability (NCI-H2009; first compound 6.325 µM): 0.975
- relative viability (NCI-H2009; first compound 20 µM): 0.0124
- relative viability (HCC-78; first compound 0.2 µM): 0.694
- relative viability (HCC-78; first compound 0.6325 µM): 0.521
- relative viability (HCC-78; first compound 2 µM): 0.452
- relative viability (HCC-78; first compound 6.325 µM): 0.485
- relative viability (HCC-78; first compound 20 µM): 0.0823
- relative viability (NCI-H1734; first compound 0.2 µM): 1.16
- relative viability (NCI-H1734; first compound 0.6325 µM): 0.75
- relative viability (NCI-H1734; first compound 2 µM): 0.812
- relative viability (NCI-H1734; first compound 6.325 µM): 0.967
- relative viability (NCI-H1734; first compound 20 µM): 0.224
- relative viability (LCLC-103H; first compound 0.2 µM): 1.35
- relative viability (LCLC-103H; first compound 0.6325 µM): 1.03
- relative viability (LCLC-103H; first compound 2 µM): 1.04
- relative viability (LCLC-103H; first compound 6.325 µM): 0.934
- relative viability (LCLC-103H; first compound 20 µM): 1
- relative viability (NCI-H460; first compound 0.2 µM): 1.38
- relative viability (NCI-H460; first compound 0.6325 µM): 0.967
- relative viability (NCI-H460; first compound 2 µM): 1.05
- relative viability (NCI-H460; first compound 6.325 µM): 0.581
- relative viability (NCI-H460; first compound 20 µM): 0.0059
- relative viability (HARA; first compound 0.2 µM): 1.24
- relative viability (HARA; first compound 0.6325 µM): 0.704
- relative viability (HARA; first compound 6.325 µM): 1.07
- relative viability (HARA; first compound 20 µM): 1.14
- relative viability (NCI-H647; first compound 0.2 µM): 1.19
- relative viability (NCI-H647; first compound 0.6325 µM): 1.06
- relative viability (NCI-H647; first compound 2 µM): 0.876
- relative viability (NCI-H647; first compound 6.325 µM): 1.17
- relative viability (NCI-H647; first compound 20 µM): 0.686
- relative viability (NCI-H1792; first compound 0.2 µM): 0.959
- relative viability (NCI-H1792; first compound 0.6325 µM): 0.851
- relative viability (NCI-H1792; first compound 2 µM): 0.937
- relative viability (NCI-H1792; first compound 6.325 µM): 1
- relative viability (NCI-H1792; first compound 20 µM): 0.939
- relative viability (HCC-15; first compound 0.2 µM): 1.02
- relative viability (HCC-15; first compound 0.6325 µM): 0.902
- relative viability (HCC-15; first compound 2 µM): 1.12
- relative viability (HCC-15; first compound 6.325 µM): 0.988
- relative viability (HCC-15; first compound 20 µM): 0.583
- relative viability (NCI-H596; first compound 0.2 µM): 1.11
- relative viability (NCI-H596; first compound 0.6325 µM): 0.93
- relative viability (NCI-H596; first compound 2 µM): 0.803
- relative viability (NCI-H596; first compound 6.325 µM): 1.25
- relative viability (NCI-H596; first compound 20 µM): 0.195
- relative viability (NCI-H441; first compound 0.2 µM): 0.387
- relative viability (NCI-H441; first compound 0.6325 µM): 0.407
- relative viability (NCI-H441; first compound 2 µM): 0.347
- relative viability (NCI-H441; first compound 6.325 µM): 0.404
- relative viability (NCI-H441; first compound 20 µM): 0.107
- relative viability (LOU-NH91; first compound 0.2 µM): 0.452
- relative viability (LOU-NH91; first compound 0.6325 µM): 0.403
- relative viability (LOU-NH91; first compound 2 µM): 0.541
- relative viability (LOU-NH91; first compound 6.325 µM): 0.423
- relative viability (LOU-NH91; first compound 20 µM): 0.485
- relative viability (HCC-366; first compound 0.2 µM): 1.15
- relative viability (HCC-366; first compound 0.6325 µM): 0.838
- relative viability (HCC-366; first compound 6.325 µM): 1.01
- relative viability (HCC-366; first compound 20 µM): 0.0138
- relative viability (ChaGo-K-1; first compound 0.2 µM): 1.21
- relative viability (ChaGo-K-1; first compound 0.6325 µM): 0.83
- relative viability (ChaGo-K-1; first compound 2 µM): 1.28
- relative viability (ChaGo-K-1; first compound 6.325 µM): 0.988
- relative viability (ChaGo-K-1; first compound 20 µM): 0.32
